# Measured values from patent publication US7205304B2, “Sulfonyl-Derivatives as novel inhibitors of histone deacetylase” (Janssen Pharmaceutica N.V., priority 2002, dated 2007).
# What was measured:
# [1] = test system: A2780 ovarian carcinoma cells; experiment: Antiproliferative activity on A2780 cells (MTT); assay type: cell-based, human; settings: four days of incubation; for IC50: Homo sapiens, A2780, 96 h, read-out: Cellular activity pIC50 (converted)
# Description: Cellular activity of the compounds of formula (I) was determined on A2780 tumour cells using a colorimetric assay for cell toxicity or survival (Mosmann Tim, Journal of Immunological Methods 65: 55–63, 1983)(see example C.2).
# All compounds tested were dissolved in DMSO and further dilutions were made in culture medium. Final DMSO concentrations never exceeded 0.1% (v/v) in cell proliferation assays. Controls contained A2780 cells and DMSO without compound and blanks contained DMSO but no cells. MTT was dissolved at 5 mg/ml in PBS. A glycine buffer comprised of 0.1 M glycine and 0.1 M NaCl buffered to pH 10.5 with NaOH (1 N) was prepared (all reagents were from Merck).
# The human A2780 ovarian carcinoma cells (a kind gift from Dr. T. C. Hamilton [Fox Chase Cancer Centre, Pennsylvania, USA]) were cultured in RPMI 1640 medium supplemented with 2 mM L-glutamine, 50 μg/ml gentamicin and 10% fetal calf serum. Cells were routinely kept as monolayer cultures at 37° C. in a humidified 5% CO2 atmosphere. Cells were passaged once a week using a trypsin/EDTA solution at a split ratio of 1:40. All media and supplements were obtained from Life Technologies. Cells were free of mycoplasma contamination as determined using the Gen-Probe Mycoplasma Tissue Culture kit (supplier: BioMérieux).
# Cells were seeded in NUNC™ 96-well culture plates (Supplier: Life Technologies) and allowed to adhere to the plastic overnight. Densities used for plating were 1500 cells per well in a total volume of 200 μl medium. After cell adhesion to the plates, medium was changed and drugs and/or solvents were added to a final volume of 200 μl. Following four days of incubation, medium was replaced by 200 μl fresh medium and cell density and viability was assessed using an MTT-based assay. To each well, 25 μl MTT solution was added and the cells were further incubated for 2 hours at 37° C. The medium was then carefully aspirated and the blue MTT-formazan product was solubilized by addition of 25 μl glycine buffer followed by 100 μl of DMSO. […] Within an experiment, the results for each experimental condition are the mean of 3 replicate wells. For initial screening purposes, compounds were tested at a single fixed concentration of 10^−6 M. For active compounds, the experiments were repeated to establish full concentration-response curves. For each experiment, controls (containing no drug) and a blank incubation (containing no cells or drugs) were run in parallel. The blank value was subtracted from all control and sample values. For each sample, the mean value for cell growth (in absorbance units) was expressed as a percentage of the mean value for cell growth of the control. […] Herein the effects of test compounds are expressed as pIC50 (the negative log value of the IC50-value).
# [2] = target: histone deacetylase (HeLa nuclear extracts); experiment: In vitro assay for inhibition of histone deacetylase; assay type: biochemical; settings: [3H]acetylated histone H4 peptide substrate
# Description: The in vitro assay for inhibition of histone deacetylase (see example C.1) measures the inhibition of HDAC enzymatic activity obtained with the compounds of formula (I).
# HeLa nuclear extracts (supplier: Biomol) were incubated at 60 μg/ml with 2×10^−8 M of radiolabeled peptide substrate. As a substrate for measuring HDAC activity a synthetic peptide, i.e. the amino acids 14–21 of histone H4, was used. The substrate is biotinylated at the NH2-terminal part with a 6-aminohexanoic acid spacer, and is protected at the COOH-terminal part by an amide group and specifically [^3H]acetylated at lysine 16. The substrate, biotin-(6-aminohexanoic)Gly-Ala-([^3H]-acetyl-Lys-Arg-His-Arg-Lys-Val-NH2), was added in a buffer containing 25 mM Hepes, 1 M sucrose, 0.1 mg/ml BSA and 0.01% Triton X-100 at pH 7.4. After 30 min the deacetylation reaction was terminated by the addition of HCl and acetic acid. (final concentration 0.035 mM and 3.8 mM respectively). After stopping the reaction, the free ^3H-acetate was extracted with ethylacetate. After mixing and centrifugation, the radioactivity in an aliquot of the upper (organic) phase was counted in a β-counter.
# For each experiment, controls (containing HeLa nuclear extract and DMSO without compound), a blank incubation (containing DMSO but no HeLa nuclear extract or compound) and samples (containing compound dissolved in DMSO and HeLa nuclear extract) were run in parallel. In first instance, compounds were tested at a concentration of 10^−5M. […] In each test the blank value was substracted from both the control and the sample values. The control sample represented 100% of substrate deactylation. For each sample the radioactivity was expressed as a percentage of the mean value of the controls. […] Herein the effects of test compounds are expressed as pIC50 (the negative log value of the IC50-value).
# [3] = Kinetic solubility in aqueous media (nephelometry); assay type: physicochemical; settings: phosphate citrate buffer, pH 7.4, aqueous buffer, kinetic from dmso stock, phosphate citrate buffer pH 7.4, turbidity of three dilution steps; read-out: Solubility Score
# Description: Kinetic solubility in aqueous media measures the ability of a compound to stay in aqueous solution upon dilution (see example C.3).
# DMSO-stock solutions are diluted with a single aqueous buffer solvent in 3 consecutive steps. For every dilution turbidity is measured with a nephelometer.
# In the first dilution step, 10 μl of a concentrated stock-solution of the active compound, solubilized in DMSO (5 mM), was added to 100 μl phosphate citrate buffer pH 7.4 and mixed. In the second dilution step, an aliquot (20 μl) of the first dilution step was further dispensed in 100 μl phosphate citrate buffer pH 7.4 and mixed. Finally, in the third dilution step, a sample (20 μl) of the second dilution step was further diluted in 100 μl phosphate citrate buffer pH 7.4 and mixed. All dilutions were performed in 96-well plates. Immediately after the last dilution step the turbidity of the three consecutive dilution steps were measured with a nephelometer. Dilution was done in triplicate for each compound to exclude occasional errors. Based on the turbidity measurements a ranking is performed into 3 classes. Compounds with high solubility obtained a score of 3 and for this compounds the first dilution is clear. Compounds with medium solubility obtained a score of 2. For these compounds the first dilution is unclear and the second dilution is clear. […] The solubility of 112 compounds was measured.
IC50 [1] [nM],Enzyme activity pIC50 [2],solubility [3] [µM],Cellular activity pIC50 [1],SMILES
> 10000,6.482,,,O=C(NO)c1ccc(N2CCCN(S(=O)(=O)c3ccc4ccccc4c3)CC2)cc1 [Compound 1]
1940,7.147,< 75.8,,O=C(NO)c1ccc(N2CCN(S(=O)(=O)c3ccc4ccccc4c3)CC2)cc1 [Compound 2]
,<5,,,O=C(NO)c1cccc(CN2CCN(S(=O)(=O)c3ccc4ccccc4c3)CC2)c1 [Compound 7]
2280,7.587,> 454,,O=C(NO)c1ccc(NC(=O)N2CCN(S(=O)(=O)c3ccc4ccccc4c3)CC2)cc1 [Compound 8]
5790,6.621,> 454,,O=C(NO)c1cnc(N2CCN(S(=O)(=O)N3CCOCC3)CC2)nc1 [Compound 14]
107,7.332,75.8 to 454,,COc1cccc(-c2ccc(S(=O)(=O)N3CCN(c4ncc(C(=O)NO)cn4)CC3)cc2)c1 [Compound 15]
> 10000,<5,,,O=C(NCCO)c1ccc(N2CCN(S(=O)(=O)c3ccc4ccccc4c3)CC2)cc1 [Compound 16]
764,<5,< 75.8,,Nc1ccccc1NC(=O)c1ccc(N2CCN(S(=O)(=O)c3ccc4ccccc4c3)CC2)cc1 [Compound 17]
4080,<5,< 75.8,,NCCNC(=O)c1ccc(N2CCN(S(=O)(=O)c3ccc4ccccc4c3)CC2)cc1 [Compound 18]
> 10000,<5,< 75.8,,O=C(CS)Nc1ccc(N2CCN(S(=O)(=O)c3ccc4ccccc4c3)CC2)cc1 [Compound 19]
,<5,,,O=C(NO)c1cc([N+](=O)[O-])ccc1N1CCN(S(=O)(=O)c2ccc(Cl)s2)CC1 [Compound 22]
4530,6.247,> 454,,CS(=O)(=O)c1ccccc1S(=O)(=O)N1CCN(c2ccc(C(=O)NO)cc2)CC1 [Compound 60]
6870,<5,,,O=C(NO)c1ccc(N2CCN(S(=O)(=O)c3cc(C(F)(F)F)cc(C(F)(F)F)c3)CC2)cc1 [Compound 75]
7100,5.937,,,COc1ccc(OC)c(S(=O)(=O)N2CCN(c3ccc(C(=O)NO)cc3)CC2)c1 [Compound 77]
> 10000,<5,,,O=C1CCC(C(=O)Nc2ccc(N3CCN(S(=O)(=O)c4ccc5ccccc5c4)CC3)cc2)N1 (stereo not shown) [Compound 84]
> 10000,<5,,,Cc1cnc(C(=O)Nc2ccc(N3CCN(S(=O)(=O)c4ccc5ccccc5c4)CC3)cc2)cn1 [Compound 85]
> 10000,<5,,,O=C(Nc1ccc(N2CCN(S(=O)(=O)c3ccc4ccccc4c3)CC2)cc1)c1ccc(=O)[nH]c1 [Compound 86]
> 10000,<5,,,O=C(Nc1ccc(N2CCN(S(=O)(=O)c3ccc4ccccc4c3)CC2)cc1)c1ccc[nH]c1=O [Compound 87]

IC50 [1] [nM],Enzyme activity pIC50 [2],solubility [3] [µM],Cellular activity pIC50 [1],SMILES
6070,6.423,,,O=C(NO)c1ccc(C(=O)N2CCN(S(=O)(=O)c3ccc4ccccc4c3)CC2)cc1 [Compound 89]
723,7.876,,,CC(C)(C)c1ccc(S(=O)(=O)N2CCN(c3ncc(C(=O)NO)cn3)CC2)cc1 [Compound 92]
125,7.938,,,O=C(NO)c1cnc(N2CCN(S(=O)(=O)c3ccc4c(Cl)cccc4c3)CC2)nc1 [Compound 97]
101,6.671,,,COc1ccc(-c2ccc(S(=O)(=O)N3CCN(c4ncc(C(=O)NO)cn4)CC3)cc2)cc1OC [Compound 101]
58.5,8.152,,,O=C(NO)c1cnc(N2CCN(S(=O)(=O)c3ccc(-c4ccsc4)cc3)CC2)nc1 [Compound 104]
1740,<5,,,O=C(NO)c1cnc(N2CCN(S(=O)(=O)c3ccc4ccccc4c3)CC2)nc1N1CCN(S(=O)(=O)c2ccc3ccccc3c2)CC1 [Compound 117]
461,7.162,,,O=C(NO)c1cnc(N2CCN(S(=O)(=O)c3ccc(-c4ccc5[nH]ccc5c4)cc3)CC2)nc1 [Compound 132]
55.2,7.612,,,O=C(NO)c1cnc(N2CCN(S(=O)(=O)c3ccc(-c4ccc(CO)cc4)cc3)CC2)nc1 [Compound 139]
99.8,7.739,,,Nc1ccc(-c2ccc(S(=O)(=O)N3CCN(c4ncc(C(=O)NO)cn4)CC3)cc2)cc1 [Compound 140]
991,7.125,,,O=C(NO)c1cnc(N2CCCN(S(=O)(=O)c3ccc4ccccc4c3)CC2)nc1 [Compound 141]
119,8.565,,,CN(C)CCN(C)Cc1sccc1-c1ccc(S(=O)(=O)N2CCN(c3ncc(C(=O)NO)cn3)CC2)cc1 [Compound 146]
275,8.7,,,O=C(NO)c1cnc(N2CCN(S(=O)(=O)c3ccc(-c4ccccc4OCCN4CCOCC4)cc3)CC2)nc1 [Compound 153]
87.1,7.939,,,O=C(NO)c1cnc(N2CCN(S(=O)(=O)c3ccc(-c4ccc(OCCN5CCOCC5)cc4)cc3)CC2)nc1 [Compound 155]
30,8.568,,,CN(C)CCCOc1ccc(-c2ccc(S(=O)(=O)N3CCN(c4ncc(C(=O)NO)cn4)CC3)cc2)cc1 [Compound 156]
117,,,7.039,O=C(NO)c1cnc(N2CCN(S(=O)(=O)c3ccc(-c4ccc(CN5CCOCC5)cc4)cc3)CC2)nc1 [Compound 162]
42.7,8.553,,,CN(C)Cc1ccc(-c2ccc(S(=O)(=O)N3CCN(c4ncc(C(=O)NO)cn4)CC3)cc2)cc1 [Compound 163]
> 10000,<5,,,O=C(NO)c1cnc(N2CCN(S(=O)(=O)c3ccc(-c4cc(C(F)(F)F)cc(C(F)(F)F)c4)cc3)CC2)nc1 [Compound 180]
